From patent US5462936A, “Benzothiazepine derivatives” (Shionogi & Co., Ltd., priority 1991, dated 1995)

Legend:
cultured cardiac cells = experiment: Anti-hypoxia action on cultured cardiac cells (inhibition of CPK leakage); format: cell-based, rat (newborn Crj-SD); conditions: Rattus norvegicus, read-out: Anti-hypoxia Activity (%), rate of inhibition on CPK leakage
Experimental: Anti-hypoxia action of the compounds of the present invention were investigated through studying their action in connection with the protection of cardiomuscular cells.
Primary culture of cardiac cells was prepared from newborn Crj-SD rats (2-3 day old) and used in the experiment. The primary culture was prepared according to the method described by Jones R. L. et al., Am. J. Pathol., 135, 541-556, 1989. Thus, cardiac cells were isolated from ventricle muscle using collagenase and pancreatin, and then the cardiac cells were separated and purified from cell debris, erythrocytes, and fibroblasts by means of Percoll density-gradient centrifugation. The cells were spread on a culture plate at a ratio of 2-3×10^5 cells/3.5 cm plate, and the cells were cultured for two days in Dulbecco's Modified Eagle's Medium (DMEM) containing 10% Fetal Bovine Serum (FBS) in an incubator (5% CO2 /95% Air) kept at 37° C. After sufficient growth of the cardiac cells, the culture medium was changed to DMEM free from FBS, and the culture was continued additional one day. The cells thus obtained were used in the experiment.
Hypoxia was generated using Gas Pak™ Anaerobic Chamber (BBL) which produces hypoxia by capturing residual O2 and changing it into H2 0 by the action of a H2 /CO2 generating bag and catalyst. The cardiac cell plate, wherein the culture medium had been changed to DMEM which is free from FBS and glucose, was set in the chamber, and the chamber was placed in an incubator. Anti-hypoxia activity of test compounds was determined by measuring inhibition rate of leakage of creatine phosphokinase activity into the culture medium.
The compounds tested were all dissolved in DMSO using HCO-50 as a solubilizing agent (DMSO:HCO-50=9:1), and directly charged onto the culture plate. The final concentrations of DMSO and HCO-50 in the culture medium were adjusted to 0.09% and 0.01% respectively. CPK activity was measured by colorimetry (Wako Kit) modified from Oliver method.
The numerical values in the table show cardiac cells-protecting activity of test compounds in terms of the rate (%) of inhibition on CPK leakage determined in connection with the test compounds when the amount of the CPK leakage for negative control (no addition of the test compounds) was defined as 100%.

Calcium Channel = Calcium Channel (Oryctolagus cuniculus, UniProt P15381); experiment: Calcium channel antagonism: relaxing action on extracted blood vessel (rabbit femoral artery, contracture by 50 mM KCl); conditions: 50 mM KCl contracture, 50% of maximum relaxing (0.1 mM papaverine)
Experimental: Calcium Channel Antagonism and […] Action (Relaxing Action on Extracted Blood Vessel)
Male rabbits weighing 2-3 kg (Rabiton, Japanese albino species) were anesthetized through intravenous administration of pentobarbital (50 mg/kg), and sacrificed by bloodletting through dissection of axillary artery. Femoral artery was extracted, connective tissue surrounding the artery was removed, and helical specimen was prepared. The specimen was suspended in an organ bath (20 cc) filled with 37° C. Krebs-Henseleit nutritious solution and bubbled with a 95% O2 +5% CO2 mixed gas. 1.5 g of resting tension was loaded on femoral artery. Isometric change of the tension of the specimen was recorded on a thermal recorder (Nippon Koden WT-685G) via F-D pickup Nippon Koden (TB611T) and Preamp (Nippon Koden). Ca-antagonism of a test compound was evaluated by observing relaxing action due to accumulative addition of the compound on the contracture caused by the application of 50 mM KCl. α-Blocking action was similarly evaluated by observing such relaxing action on the contracture caused by the application of 1 μM norepinephrine (NE). […] The concentration of a given compound, which is necessary for giving 50% of the maximum relaxing (IC50), was determined using the above system.

[1] = tested on: spontaneous hypertensive rats (SHR); experiment: Action on blood pressure and heart rate of not-anesthetized SHR; format: in vivo, rat (SHR); conditions: 30 mg/kg PO, 2 and 4 hours after administration; for Antihypertensive action (%): decrease in SBP
Experimental: Action of the compounds of the invention on blood pressure and heart rate of not-anesthetized spontaneous hypertensive rats (SHR)
Male Japanese Charles-River SHR (13-17 week old) were used in the experiment (S. Matsuda, J. Pharmacol. Method, 17 361, 1987). Systolic blood pressure (SBP) and heart rate of the animals were measured non-invasively (indirectly) using hemadynamometer for caudal artery pressure (6 channel type) before the administration of test compounds, at 2 and 4 hours after administration. Test compounds were dissolved in DMSO (100%) and orally administered. Decreased values in SBP and heart rate determined 2 and 4 hours after administration when compared with those determined before administration are shown in percentage (%) in the following table.

[2] = tested on: cardiac muscle damage due to ischemia; experiment: Anti-necrosis activity (left coronary ligation and reperfusion, CPK retention in left ventricle); format: in vivo, rat (Wistar); conditions: Rattus norvegicus; for inhibition in vivo at 0.3 mg/kg: 0.3 mg/kg iv
Experimental: Male Sic Wistar rats weighing 200-250 g were anesthetized with urethane (1 g/kg), and ramus descendens of the left coronaria was ligated for 20 minutes and then reperfused according to the method described by Hock et al (Hock, […]., Am. Heart J., 109 222, 1985). […] For three hours after the reperfusion, the rats were subjected to heat insulation on a warming mat. After 120 minutes, the hearts were extracted, and the free walls of the left ventricles were frozen and storred until determination of CPK activity. CPK activity was determined according to the method of Bernauer, W. (Arch. int. Pharmacodyn., 231 90, 1978) after minor modification. Thus, the extracted tissue was homogenized in 10 volumes of 0.1M Tris/HCl (pH 7.5) containing 1 mM mercaptoethanol and centrifuged at 20,000 g for 20 minutes. The supernatant was used for determination of CPK activity, which was conducted using a commercially available kit (CPK-Test, Wako). CPK was determined using serum CPK as a standard and expressed with "U/mg protein". […] The degree of the inhibition was measured in terms of the CPK activity retained in the left ventricle. The test results are shown in Table 7, wherein percentage of the retention (%) at each dose was calculated based on the following equation.

Sequence of Calcium Channel (P15381 whole entry): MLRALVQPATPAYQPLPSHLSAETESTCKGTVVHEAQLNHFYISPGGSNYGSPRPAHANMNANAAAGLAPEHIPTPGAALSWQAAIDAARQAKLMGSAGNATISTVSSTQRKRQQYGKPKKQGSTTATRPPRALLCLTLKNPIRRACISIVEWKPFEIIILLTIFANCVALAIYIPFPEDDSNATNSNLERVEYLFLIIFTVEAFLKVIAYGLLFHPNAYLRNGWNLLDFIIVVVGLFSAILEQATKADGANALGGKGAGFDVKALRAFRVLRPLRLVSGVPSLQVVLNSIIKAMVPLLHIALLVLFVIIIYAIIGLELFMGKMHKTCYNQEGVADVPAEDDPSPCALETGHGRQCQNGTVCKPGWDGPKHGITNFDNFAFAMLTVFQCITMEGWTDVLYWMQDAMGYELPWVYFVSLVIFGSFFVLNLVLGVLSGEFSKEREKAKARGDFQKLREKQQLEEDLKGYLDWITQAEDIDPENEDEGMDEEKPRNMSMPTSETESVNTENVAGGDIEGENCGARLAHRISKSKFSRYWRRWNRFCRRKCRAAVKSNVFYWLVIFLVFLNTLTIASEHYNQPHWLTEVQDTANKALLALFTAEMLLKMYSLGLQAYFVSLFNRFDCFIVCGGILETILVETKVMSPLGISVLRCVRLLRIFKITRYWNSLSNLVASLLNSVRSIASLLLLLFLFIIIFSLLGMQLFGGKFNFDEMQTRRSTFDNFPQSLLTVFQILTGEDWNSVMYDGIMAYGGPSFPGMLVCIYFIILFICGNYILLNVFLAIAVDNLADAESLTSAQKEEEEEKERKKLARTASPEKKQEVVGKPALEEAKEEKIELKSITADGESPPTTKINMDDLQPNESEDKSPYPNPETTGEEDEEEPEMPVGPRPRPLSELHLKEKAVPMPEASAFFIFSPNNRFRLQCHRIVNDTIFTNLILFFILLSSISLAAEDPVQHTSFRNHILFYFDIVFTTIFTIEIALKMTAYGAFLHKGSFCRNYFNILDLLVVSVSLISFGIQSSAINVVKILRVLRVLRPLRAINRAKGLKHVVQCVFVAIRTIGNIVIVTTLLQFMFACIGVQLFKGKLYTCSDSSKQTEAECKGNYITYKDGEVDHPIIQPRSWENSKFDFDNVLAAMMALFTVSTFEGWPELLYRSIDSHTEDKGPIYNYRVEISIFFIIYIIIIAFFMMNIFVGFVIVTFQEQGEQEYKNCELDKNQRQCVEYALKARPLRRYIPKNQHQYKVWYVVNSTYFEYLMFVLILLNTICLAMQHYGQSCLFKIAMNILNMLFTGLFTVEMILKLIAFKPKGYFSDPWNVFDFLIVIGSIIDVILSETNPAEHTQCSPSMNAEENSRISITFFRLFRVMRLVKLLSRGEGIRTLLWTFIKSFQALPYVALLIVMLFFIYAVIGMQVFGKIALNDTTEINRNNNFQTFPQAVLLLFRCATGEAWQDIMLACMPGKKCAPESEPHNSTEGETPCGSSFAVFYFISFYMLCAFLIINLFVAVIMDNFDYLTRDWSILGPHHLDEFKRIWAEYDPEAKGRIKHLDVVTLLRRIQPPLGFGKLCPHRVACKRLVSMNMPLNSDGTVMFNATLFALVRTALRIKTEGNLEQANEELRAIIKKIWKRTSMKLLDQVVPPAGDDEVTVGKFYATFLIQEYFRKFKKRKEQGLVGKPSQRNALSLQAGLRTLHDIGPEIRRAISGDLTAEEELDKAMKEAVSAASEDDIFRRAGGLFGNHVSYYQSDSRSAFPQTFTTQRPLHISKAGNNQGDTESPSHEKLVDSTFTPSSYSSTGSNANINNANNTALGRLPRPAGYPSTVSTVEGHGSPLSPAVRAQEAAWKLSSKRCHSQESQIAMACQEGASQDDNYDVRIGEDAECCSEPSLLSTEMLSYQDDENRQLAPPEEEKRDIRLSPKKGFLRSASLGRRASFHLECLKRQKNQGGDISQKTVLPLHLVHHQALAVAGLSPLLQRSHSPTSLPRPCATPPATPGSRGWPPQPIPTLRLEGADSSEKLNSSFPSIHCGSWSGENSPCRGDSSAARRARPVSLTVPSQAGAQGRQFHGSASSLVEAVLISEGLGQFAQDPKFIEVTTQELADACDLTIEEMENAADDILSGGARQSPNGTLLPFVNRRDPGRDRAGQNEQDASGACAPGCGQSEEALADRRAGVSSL
Sequence of Calcium Channel (P13806 27-960 partner limits assumed): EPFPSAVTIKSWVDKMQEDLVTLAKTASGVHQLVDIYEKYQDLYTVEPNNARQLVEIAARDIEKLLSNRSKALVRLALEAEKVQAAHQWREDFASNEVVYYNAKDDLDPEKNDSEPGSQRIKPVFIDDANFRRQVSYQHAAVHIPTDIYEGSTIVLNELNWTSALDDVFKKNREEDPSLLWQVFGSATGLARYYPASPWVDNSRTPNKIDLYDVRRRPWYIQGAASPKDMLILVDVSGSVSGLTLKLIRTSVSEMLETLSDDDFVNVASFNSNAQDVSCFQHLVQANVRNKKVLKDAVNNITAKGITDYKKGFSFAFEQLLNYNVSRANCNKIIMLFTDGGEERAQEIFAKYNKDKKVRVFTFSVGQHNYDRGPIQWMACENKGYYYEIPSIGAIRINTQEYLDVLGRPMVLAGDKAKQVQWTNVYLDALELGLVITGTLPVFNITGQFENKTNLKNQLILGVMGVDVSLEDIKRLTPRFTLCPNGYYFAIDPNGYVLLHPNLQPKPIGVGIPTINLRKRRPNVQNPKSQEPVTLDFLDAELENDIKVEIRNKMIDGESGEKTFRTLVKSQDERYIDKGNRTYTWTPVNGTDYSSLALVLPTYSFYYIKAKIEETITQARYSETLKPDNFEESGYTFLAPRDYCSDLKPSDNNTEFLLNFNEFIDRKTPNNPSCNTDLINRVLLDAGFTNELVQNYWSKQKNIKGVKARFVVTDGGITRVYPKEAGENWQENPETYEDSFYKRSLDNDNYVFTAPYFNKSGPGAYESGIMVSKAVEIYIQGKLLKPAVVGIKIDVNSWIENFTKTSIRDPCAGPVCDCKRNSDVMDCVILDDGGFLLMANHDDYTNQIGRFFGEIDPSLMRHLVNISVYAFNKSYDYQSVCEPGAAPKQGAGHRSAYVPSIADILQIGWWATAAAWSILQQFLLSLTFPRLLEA
Sequence of Calcium Channel (P13806 961-1106 partner limits assumed): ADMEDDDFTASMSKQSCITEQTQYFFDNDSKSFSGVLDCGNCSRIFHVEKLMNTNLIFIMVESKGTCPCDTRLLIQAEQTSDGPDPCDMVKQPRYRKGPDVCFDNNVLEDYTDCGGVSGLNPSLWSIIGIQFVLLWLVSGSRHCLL

SMILES | inhibition at 10 µM (cultured cardiac cells) | inhibition at 1 µM (cultured cardiac cells) | also measured
COc1ccc([C@@H]2Sc3cc(Cl)ccc3N(CCCCCN3CCN(c4ccccc4OC)CC3)C(=O)[C@@H]2OC(C)=O)cc1 [Compound I-34, (2S-cis)-3-Acetoxy-5-[5-(4-(2-methoxyphenyl)-1-piperazinyl)pentyl]-2,3-dihydro-2-(4-methoxyphenyl)-8-chloro-l,5-benzothiazepin-4(5H)-one] | 80% | – | –
COc1ccc([C@@H]2Sc3cc(Cl)ccc3N(CCCN3CCN(c4ccccn4)CC3)C(=O)[C@@H]2OC(C)=O)cc1 (relative stereo) [Compound I-3, 3-Acetoxy-5-[3-(4-(2-piridyl)1-piperazinyl)propyl]-2,3-dihydro-2-(4-methoxyphenyl)-8-chloro-1,5-benzothiazepin-4(5H)-one] | – | 34% | –
COc1ccc([C@@H]2Sc3cc(Cl)ccc3N(CCCN3CCN(Cc4ccc5c(c4)OCO5)CC3)C(=O)[C@@H]2OC(C)=O)cc1 (relative stereo) [Compound I-5] | 66% | – | IC50 (Calcium Channel): 0.25 µM
COc1ccc([C@@H]2Sc3cc(Cl)ccc3N(CCCCN3CCN(c4ccccc4OC)CC3)C(=O)[C@@H]2OC(C)=O)cc1 [Compound I-33, (2S-cis)-3-Acetoxy-5-[4-(4-(2-methoxyphenyl)-1-piperazinyl)butyl]-2,3-dihydro-2-(4-methoxyphenyl)-8-chloro-1,5-benzothiazepin-4(5H)-one] | 87% | 36.9% | –
COc1ccc([C@@H]2Sc3cc(Cl)ccc3N(CCCN3CCN(C(c4ccccc4)c4ccc(Cl)cc4)CC3)C(=O)[C@@H]2OC(C)=O)cc1 (relative stereo) [Compound I-16, 3-Acetoxy-5-[3-(4-(4-chlorobenzhydryl)-piperazinyl)propyl]-2,3-dihydro-2-(4-methoxyphenyl)-8-chloro-1,5-benzothiazepin-4(5H)-one] | 57% | 18.4% | IC50 (Calcium Channel): 0.24 µM; Decrease of heart rate (%) [1]: 15%; Antihypertensive action (%) [1]: 19%
COc1ccc([C@@H]2Sc3cc(Cl)ccc3N(CCCN3CCN(c4cc(OC)c(OC)c(OC)c4)CC3)C(=O)[C@@H]2OC(C)=O)cc1 [Compound I-32, (2S-cis)-3-Acetoxy-5-[3-(4-(3,4,5trimethoxyphenyl) - 1-piperazinyl)propyl]-2,3-dihydro-2-(4methoxyphenyl) -8-chloro-1,5-benzothiazepin-4 (5H)-one] | 66.1% | – | –
COc1ccc([C@@H]2Sc3cc(Cl)ccc3N(CCCN3CCN(C(=O)c4ccco4)CC3)C(=O)[C@@H]2OC(C)=O)cc1 (relative stereo) [Compound I-7, 3-Acetoxy-5-[3-(4-(2-furoyl)-1-piperazinyl)propyl]-2,3-dihydro-2-(4-methoxyphenyl)-8-chloro-1,5-benzothiazepin-4(5H)-one] | – | 36% | –
COc1ccc([C@@H]2Sc3cc(Cl)ccc3N(CCCN3CCN(c4ccc(OC)cc4)CC3)C(=O)[C@@H]2OC(C)=O)cc1 [Compound I-29, (2S-cis)-3-Acetoxy-5-[3-(4-(4methoxyphenyl) -1-piperazinyl)propyl]methoxyphenyl-8-chloro-1,5-benzothiazepin-4(5H)-one] | – | 30% | –
COc1ccc([C@@H]2Sc3cc(Cl)ccc3N(CCCN3CCC(c4ccccc4)(c4ccccc4)CC3)C(=O)[C@@H]2OC(C)=O)cc1 (relative stereo) [Compound I-14, 3-Acetoxy-5-[3-(4,4-diphenyl-1piperizinyl)propyl]-2,3-dihydro-2-(4-methoxyphenyl)-8-chloro-1,5-benzothiazepin-4(5H)-one] | 83.6% | – | IC50 (Calcium Channel): 0.1 µM; Decrease of heart rate (%) [1]: 9.8%; Antihypertensive action (%) [1]: 14%
COc1ccc([C@@H]2Sc3cc(Cl)ccc3N(CCCN3CCN(C(c4ccccc4)c4ccccc4)CC3)C(=O)[C@@H]2OC(C)=O)cc1 [Compound I-23, (2S-cis)-3-Acetoxy-5-[3-(4-(benzhydryl)-piperazinyl)propyl]-2,3-dihydro-2-(4-methoxyphenyl)-8-chloro-1,5-benzothiazepin-4(5H)-one] | 87% | 36.4% | inhibition in vivo at 0.3 mg/kg [2]: 45%; Decrease of heart rate (%) [1]: 12%; Antihypertensive action (%) [1]: 16%
COc1ccc([C@@H]2Sc3cc(Cl)ccc3N(CCCN3CCN(C(c4ccc(Cl)cc4)c4ccc(Cl)cc4)CC3)C(=O)[C@@H]2OC(C)=O)cc1 [Compound I-24, (2S-cis)-3-Acetoxy-5-[3-(4-(4-dichlorobenzhydryl)-1-piperazinyl)propyl]-2,3-dihydro-2-(4-methoxyphenyl)-8-chloro-l,5-benzothiazepin-4(5H)-one] | 88% | 14.1% | inhibition in vivo at 0.3 mg/kg [2]: 35%
COc1ccc([C@@H]2Sc3cc(Cl)ccc3N(CCN3CCN(c4ccc(F)cc4)CC3)C(=O)[C@@H]2OC(C)=O)cc1 (relative stereo) [Compound I-13, 3-Acetoxy-5-[2-(4-(4-fluorophenyl)-piperazinyl)ethyl]-2,3-dihydro-2-(4-methoxyphenyl)-8-chloro-1,5-benzothiazepin-4(5H)-one] | 61% | 15% | –
COc1ccc([C@@H]2Sc3cc(Cl)ccc3N(CCCN3CCN(c4ccccc4)CC3)C(=O)[C@@H]2OC(C)=O)cc1 (relative stereo) [Compound I-1, 3-Acetoxy-5-[3-(4,phenyl-1-piperazinyl)propyl]-2,3-dihydro-2-(4-metoxyphenyl)-8-chloro-1,5-benzothiazepin-4(5H)-one] | 66% | – | –
COc1ccc([C@@H]2Sc3cc(Cl)ccc3N(CCCN3CCN(c4ccc(F)cc4)CC3)C(=O)[C@@H]2OC(C)=O)cc1 (relative stereo) [Compound I-12, 3-Acetoxy-5-[3-(4-(4-fluorophenyl)-piperazinyl)propyl]-2,3-dihydro-2-(4-methoxyphenyl)-8-chloro-1,5-benzothiazepin-4(5H)-one] | 87% | 10% | inhibition in vivo at 1 mg/kg ([2]; 1 mg/kg iv): 23%
COc1ccc([C@@H]2Sc3cc(Cl)ccc3N(CCN3CCC(c4ccccc4)CC3)C(=O)[C@@H]2OC(C)=O)cc1 (relative stereo) [Compound I-11] | – | – | IC50 (Calcium Channel): 0.2 µM
COc1ccc([C@@H]2Sc3cc(Cl)ccc3N(CCCN3CCN(c4ccc(Cl)cc4)CC3)C(=O)[C@@H]2OC(C)=O)cc1 [Compound I-25, (2S-cis)-3-Acetoxy-5-[3-(4-(4-chlorophenyl)-1-piperazinyl)propyl]-2,3-dihydro-2-(4-methoxyphenyl)-8-chloro-l,5-benzothiazepin-4(5H)-one] | 89% | 25.2% | –
